Test results from patent US10995126B2, “Immunogenic peptide containing a b cell epitope of tumor associated antigen L6” (National Health Research Institutes, priority 2016, dated 2021).
No end group written: not given here.

Experiments:
[1] = test system: breast cancer cell lines MCF7 and MCF7-TAL6; test: ADCC Cr51 release assay with sera of immunized mice, MCF7 and MCF7-TAL6 target cells; assay type: cell-based, human; conditions: formulated with PELC/CpG; sera collected at 6 weeks
Method: (§1) FIG. 9 is a set of graphs showing that peptide formulated with different adjuvants induced antibody-dependent cellular cytotoxicity (ADCC) against human cancer cells. Mice were immunized with peptide Th-EP1-A2-5 in various adjuvants twice at a two-week interval. Sera were collected at 6 weeks for ADCC assay. (A) Lung cancer cell line H2981 was used as a target. (B) Human breast cancer cell lines MCF7 and MCF7-TAL6 were used as targets. TAL6-specific ADCC was determined by Cr^51 release assay. The lysis percentage was calculated as: immunized serum (lysis %)−naïve serum (lysis %) ***P<0.001.
(§2) Mice were immunized with Th-A2-5-EP1 formulated with different adjuvants twice at a two-week interval. Sera was collected at 6 weeks for ADCC assay. […] TAL6-specific ADCC was determined by Cr51 release assay. The lysis percentage was calculated by subtracting the […].
(§3) Mice spleen cells were used as effector cells for the ADCC assay. […] After 6 hr, supernatants were harvested to measure the radioactivity using a gamma counter. Spontaneous release was measured in wells containing target cells alone. […] Percent cytotoxicity was determined according to the formula: percent lysis=100×(experimental ^51Cr release−spontaneous ^51Cr release)/(maximal ^51Cr release−spontaneous ^51Cr release).

[2] = test system: lung cancer cell line H2981; test: ADCC Cr51 release assay with sera of immunized mice, H2981 target cells; assay type: cell-based, human; conditions: formulated with PELC/CpG; sera collected at 6 weeks
Method: as §1, §2, §3

B16-L6 cells = test: Immunization then subcutaneous B16-L6 tumor challenge in WT mice; assay type: in vivo, C57BL/6 mice
Method: EP1 or positive control MCF-7/TAL6 cells formulated with incomplete Freund's adjuvant (IFA) were administered to mice twice at a two-week interval. (A) At 7 days after the final immunization, B16-L6 (2×10^4) cells were inoculated subcutaneously. Tumor growth was monitored 2-3 times per week. (B) The survival rate of the mice was determined.
Mice were immunized with 50 mg of EP1 formulated with the indicated adjuvants twice at a 14-day interval. (A) At 7 days after the second immunization, 2×10^4 of B16/TAL6 cells were injected subcutaneously. Tumor growth was monitored 2-3 times per week. Results obtained are expressed as mean SD (n=6). (B) Mouse survival rate was monitored. Results are expressed as means ±SD (*P<0.05.**P<0.01).
See FIG. 2, B. To investigate if the EP1 peptide could induce anti-tumor activity, mice were immunized with EP1 peptide and then challenged with B16-L6 cells (2×10^4/mouse) at 7 days after the final immunization.
The EP1 peptide was formulated with different adjuvants. Mice were immunized with 50 mg of the formulations twice at a 14-day interval. At 7 days after the second immunization, 2×10^4 B16/TAL6 cells were injected subcutaneously to the mice. Tumor growth was monitored 2-3 times per week.
HLA-A2 Tg mice were injected subcutaneously (s.c.) twice at a 2-week interval with peptide formulated in IFA, alum, DOTAP liposome, PELC nanoparticles, or TLR9 agonist CpG. Seven days after the second immunization, the B16-L6-A2 or B16-L6 cells (2×10^4) were inoculated s.c. on the opposite site of the peptide injection. Tumor sizes were measure 2-3 times per week. Tumor volume was calculated using the formula: tumor volume=length×width×width/2.

native TAL6 = biological target: T1, native TAL6 (Homo sapiens, UniProt P30408); test: Anti-TAL6 antibody in sera of immunized mice, cell-based ELISA; assay type: in vivo, C57BL/6 mice; conditions: formulated with IFA/Th, sera 1:500, EL4-L6 O.D. minus EL4 O.D.
T1 construct: expressed in transfected cells; host or cells: EL-4 (mouse lymphoma) cells expressing TAL6 (EL-4/L6, EL4-L6)
T1 sequence (P30408 1-202): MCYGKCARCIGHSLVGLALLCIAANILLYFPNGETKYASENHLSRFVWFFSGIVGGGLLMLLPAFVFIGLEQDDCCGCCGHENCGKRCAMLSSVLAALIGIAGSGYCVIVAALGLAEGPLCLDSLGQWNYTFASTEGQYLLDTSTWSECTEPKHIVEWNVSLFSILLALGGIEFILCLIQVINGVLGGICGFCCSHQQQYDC
Method: (§4) FIG. 2 is a set of graphs showing that immunization of WT mice with the EP1 peptide induced anti-tumor immunity. EP1 or positive control MCF-7/TAL6 cells formulated with incomplete Freund's adjuvant (IFA) were administered to mice twice at a two-week interval. (A) Anti-TAL6 antibody titers were determined by using cell-based ELISA. Antigen-specific antibody was calculated as: EL4-L6 (O.D.)−EL4 (O.D.). (B) TAL6-specific ADCC was determined in a Cr^51 release assay. The lysis percentage was calculated as immunized serum (lysis %)−naïve serum (lysis %). ***P<0.001.
To test whether the EP1 peptide could raise antibodies that bind native TAL6, the EP1 peptide or MCF-7/L6 cells (as positive control) were formulated with IFA/Th and administered to C57BL/6 mice. Sera from immunized mice were collected and the anti-TAL6 antibody titers were analyzed using cell-based ELISA. […] See FIG. 2, A. Whether EP1 immunization could induce antibody-dependent cellular cytotoxicity (ADCC) was also investigated. Sera (1:100) from mice immunized with either EP1 or MCF-7/L6 cells could kill TAL6-expressed EL4 (EL4/L6) cells but not EL4 parental cells (61.82%±6.12% v.s. 0.36%±0.96% and 65.54%±1.77% v.s. 11.41%±3.094%). […]
(§5) For antibody epitope mapping, L6, 9C7 and 1F4 Mabs were assayed by ELISA. […] Absorbance was measured at 450 nm.

[3] = test system: TAL6-expressed EL4 (EL4/L6) cells; test: ADCC Cr51 release assay with sera of immunized mice, EL4/L6 target cells; assay type: cell-based; conditions: C57BL/6 mice, IFA; sera 1:100; immunized serum lysis % minus naïve serum lysis %
Method: as §4
FIG. 6 is a set of graphs showing that immunization with PELC/CpG/Th-A2-5-EP1 induced high levels of humoral and cellular immunity in HLA-A2 mice. The Th-A2-5-EP1 peptide was formulated with different adjuvants. […] (A) IFN-γ-secreting cells were determined using IFN-γ ELISpot assay. Results are expressed as mean SD. ***P<0.001. […] (D) TAL6-specific ADCC was determined by Cr^51 release assay. The lysis percentage was calculated as: immunized serum (lysis %)—naïve serum (lysis %) ***P<0.001.
(§6) To test whether the EP1 peptide could raise antibodies that bind native TAL6, the EP1 peptide or MCF-7/L6 cells (as positive control) were formulated with IFA/Th and administered to C57BL/6 mice. Sera from immunized mice were collected and the anti-TAL6 antibody titers were analyzed using cell-based ELISA. […]

EL4 parental cells = test: ADCC Cr51 release assay with sera of immunized mice, EL4 parental target cells; assay type: cell-based; conditions: C57BL/6 mice, IFA; sera 1:100; immunized serum lysis % minus naïve serum lysis %
Method: as §4, §6, §3

[4] = test system: anti-TAL6 monoclonal antibody L6; test: ELISA epitope mapping: detection of coated TAL6 peptides by L6 mAb; assay type: binding; conditions: plate coated with peptide 10 μg/ml; antibody 1:500
Method: FIG. 1 includes (A) a scheme showing the overlapping peptides that cover the extracellular domains of TAL6: EL1 (residues 31 to 46 of SEQ ID NO: 1); EL2 (residues 114 to 164 of SEQ ID NO: 1); EP1 (SEQ ID NO: 4); EP2 (SEQ ID NO: 17); EP3 (SEQ ID NO: 18); and EP4 (SEQ ID NO: 19); and (B) a graph showing binding of the peptides to anti-TAL6 antibodies. A 96-well plate was coated with the indicated peptides (10 μg/ml) in each well. Three anti-TAL6 antibodies (1:500) were used to detect these peptides. CP: Control peptide.
FIG. 10 is a graph showing identification of residues in EP1 that are important for antibody binding using alanine scanning. The amino acid residues in EPI were individually replaced with alanine to generate EP1-1 to EP1-20 peptides. Monoclonal antibody L6 was used to detect these peptides. EP1 is a positive control and EP-3 is a negative control.
Three purified anti-TAL6 monoclonal antibodies (1F4, 9C7, L6) were used to detect the surface expression TAL6 on EL-4 (EL-4/L6) cells. See Chang et al., Int J Cancer, 116 (2005) 243-252. […] To further map the antibody-binding epitopes, five peptides (EL1 and EP1-4) that cover the EL1 and EL2 extracellular loops were used to determine the linear B cell epitopes using ELISA. […]
as §5

| Sequence | ADCC cytotoxicity, rank among adjuvant formulations [1] | ADCC cytotoxicity, rank among adjuvant formulations [2] | tumor growth (B16-L6 cells; formulated with IFA, immunized twice, B16-L6 2×10^4/mouse s.c. 7 days after final immunization) | anti-tumor effects (tumor growth, survival) (B16-L6 cells; formulated with PELC/CpG, 50 mg twice at 14-day interval, 2×10^4 B16/TAL6 cells s.c.) | anti-tumor effect (tumor growth) (B16-L6 cells; formulated with different adjuvants, 50 mg twice at 14-day interval, 2×10^4 B16/TAL6 cells s.c.) | anti-TAL6 antibody amount in sera versus vehicle (PBS) (native TAL6) | ADCC lysis of EL4/L6 cells [3] | ADCC lysis of EL4 parental cells (EL4 parental cells) | detection of the peptide by L6 mAb (ELISA) [4] |
| --- | --- | --- | --- | --- | --- | --- | --- | --- | --- |
| AKFVAAWTLKAAAAAALLMLLPAFVAAAGLAEGPLCLDSLGQWNYTFA [Th-A2-5-EP1] | strongest cytotoxicity | strongest cytotoxicity | – | – | – | – | – | – | – |
| GLAEGPLCLDSLGQWNYTFA [EP1] | – | – | significantly inhibited tumor growth | induced anti-tumor effects | exhibited an anti-tumor effect | significantly higher amount of antibody | 61.82%±6.12% | 0.36%±0.96% | could be detected by L6 mAb |
